System: native tau aggregates
Assay: TAU radioligand in vitro displacement assay ([3H]T808 autoradiography on human AD brain sections)
Format: binding
Conditions: compound 10 nM, radioligand [3H]T808 10 nM, 50 mM Tris pH 7.4, room temperature, 30 min
Procedure, shortened: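 Human AD brain cryosections (10 μm) co-incubated with [3H]T808 (10 nM) and test compound at various concentrations in 50 mM Tris pH 7.4, 30 min at room temperature, then washed at 4° C. Autoradiography after 5-day plate exposure. % displacement from ROI specific binding, white-matter signal subtracted as non-specific; cold T808 internal control.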

Row | % displacement of [3H]T808 (10 nM) at 10 nM [%] | SMILES
1 | 15 | FCCCOc1ccc(-c2cn3ccc(N4CCC4)nc3n2)cc1 [Example 112, 7-(Azetidin-1-yl)-2-(4-(3-fluoropropoxy)phenyl)imidazo[1,2-a]pyrimidine]
2 | 9 | COc1ccc(-c2cn3ccc(N(CCF)C4CC4)nc3n2)cc1 [Example 116, N-Cyclopropyl-N-(2-fluoroethyl)-2-(4-methoxyphenyl)imidazo[1,2-a]pyrimidin-7-amine]
3 | 22 | Fc1ccc(-c2cn3ccc(N4CCC4)nc3n2)cc1 [Example 119, 7-(Azetidin-1-yl)-2-(4-fluorophenyl)imidazo[1,2-a]pyrimidine]
4 | 43 | CNc1ccn2cc(-c3ccc(OCCF)cc3)nc2n1 [Example 123, 2-(4-(2-Fluoroethoxy)phenyl)-N-methylimidazo[1,2-a]pyrimidin-7-amine]
5 | 40 | CNc1ccn2cc(-c3ccc(OCCCF)cc3)nc2n1 [Example 124, 2-(4-(3-Fluoropropoxy)phenyl)-N-methylimidazo[1,2-a]pyrimidin-7-amine]
6 | 36 | CNc1ccn2cc(-c3ccc(OCF)cc3)nc2n1 [Example 132, 2-(4-(Fluoromethoxy)phenyl)-N-methylimidazo[1,2-a]pyrimidin-7-amine]
7 | 6 | FCCOc1cccc(-c2cn3ccc(NC4CC4)nc3n2)c1 [Example 134, N-Cyclopropyl-2-(3-(2-fluoroethoxy)phenyl)imidazo[1,2-a]pyrimidin-7-amine]
8 | 18 | CN(C)c1ccn2cc(-c3ccc(CO)cc3)nc2n1 [Example 135, [4-[7-(Dimethylamino)imidazo[1,2-a]pyrimidin-2-yl]phenyl]methanol acetic acid adduct]
9 | 18 | FCOc1cccc(-c2cn3ccc(NC4CC4)nc3n2)c1 [Example 137, N-Cyclopropyl-2-(3-(fluoromethoxy)phenyl)imidazo[1,2-a]pyrimidin-7-amine]
10 | 20 | FCCOc1ccc(-c2cn3ccc(NC4CC4)nc3n2)cc1 [Example 138, N-Cyclopropyl-2-(4-(2-fluoroethoxy)phenyl)imidazo[1,2-a]pyrimidin-7-amine]
11 | 22 | FCCCOc1ccc(-c2cn3ccc(NC4CC4)nc3n2)cc1 [Example 139, N-Cyclopropyl-2-(4-(3-fluoropropoxy)phenyl)imidazo[1,2-a]pyrimidin-7-amine]
12 | 11 | FCOc1ccc(-c2cn3ccc(NC4CC4)nc3n2)cc1 [Example 140, N-Cyclopropyl-2-(4-(fluoromethoxy)phenyl)imidazo[1,2-a]pyrimidin-7-amine]

Continued, compound first:

Row | SMILES | % displacement of [3H]T808 (10 nM) at 10 nM [%]
13 | COc1cccc(-c2cn3ccc(N4CCC4)nc3n2)c1 [Example 113, 7-(Azetidin-1-yl)-2-(3-methoxyphenyl)imidazo[1,2-a]pyrimidine] | 36
14 | CNc1ccn2cc(-c3cccc(CO)c3)nc2n1 [Example 114, [3-[7-(Methylamino)imidazo[1,2-a]pyrimidin-2-yl]phenyl]methanol acetic acid adduct] | 11
15 | FCCOc1cccc(-c2cn3ccc(N4CCC4)nc3n2)c1 [Example 115, 7-(Azetidin-1-yl)-2-(3-(2-fluoroethoxy)phenyl)imidazo[1,2-a]pyrimidine] | 5
16 | CNc1ccn2cc(-c3cccc(OC)c3)nc2n1 [Example 117, 2-(3-Methoxyphenyl)-N-methylimidazo[1,2-a]pyrimidin-7-amine] | 40
17 | FCOc1cccc(-c2cn3ccc(N4CCC4)nc3n2)c1 [Example 118, 7-(Azetidin-1-yl)-2-(3-(fluoromethoxy)phenyl)imidazo[1,2-a]pyrimidine] | 23
18 | Fc1cccc(-c2cn3ccc(N4CCC4)nc3n2)c1 [Example 120, 7-(Azetidin-1-yl)-2-(3-fluorophenyl)imidazo[1,2-a]pyrimidine] | 22
19 | COc1cc(OC)cc(-c2cn3ccc(N4CCC4)nc3n2)c1 [Example 121, 7-(Azetidin-1-yl)-2-(3,5-dimethoxyphenyl)imidazo[1,2-a]pyrimidine] | 5
20 | CNc1ccn2cc(-c3ccc(O)cc3)nc2n1 [Example 122, 4-(7-(Methylamino)imidazo[1,2-a]pyrimidin-2-yl)phenol] | 32
21 | CNc1ccn2cc(-c3cccc(O)c3)nc2n1 [Example 125, 3-(7-(Methylamino)imidazo[1,2-a]pyrimidin-2-yl)phenol] | 16
22 | CSc1cccc(-c2cn3ccc(N4CCC4)nc3n2)c1 [Example 126, 7-(Azetidin-1-yl)-2-(3-(methylthio)phenyl)imidazo[1,2-a]pyrimidine] | 15
23 | COc1cc(-c2cn3ccc(N4CCC4)nc3n2)ccc1C [Example 127, 7-(Azetidin-1-yl)-2-(3-methoxy-4-methylphenyl)imidazo[1,2-a]pyrimidine] | 11
24 | COc1ccc(-c2cn3ccc(N4CCC4)nc3n2)cc1OC [Example 128, 7-(Azetidin-1-yl)-2-(3,4-dimethoxyphenyl)imidazo[1,2-a]pyrimidine] | 15
25 | CNc1ccn2cc(-c3cccc(OCCF)c3)nc2n1 [Example 129, 2-(3-(2-Fluoroethoxy)phenyl)-N-methylimidazo[1,2-a]pyrimidin-7-amine] | 16
26 | CNc1ccn2cc(-c3cccc(OCCCF)c3)nc2n1 [Example 130, 2-(3-(3-Fluoropropoxy)phenyl)-N-methylimidazo[1,2-a]pyrimidin-7-amine] | 12
27 | CNc1ccn2cc(-c3cccc(OCF)c3)nc2n1 [Example 131, 2-(3-(Fluoromethoxy)phenyl)-N-methylimidazo[1,2-a]pyrimidin-7-amine] | 33
28 | Oc1cccc(-c2cn3ccc(NC4CC4)nc3n2)c1 [Example 133, 3-(7-(Cyclopropylamino)imidazo[1,2-a]pyrimidin-2-yl)phenol] | 14
29 | CNc1ccn2cc(-c3ccc(C(=O)OC)cc3)nc2n1 [Example 136, Methyl 4-[7-(methylamino)imidazo[1,2-a]pyrimidin-2-yl]benzoate] | 27
30 | CNc1ccn2cc(-c3ccc(SC)cc3)nc2n1 [Example 141, N-Methyl-2-(4-(methylthio)phenyl)imidazo[1,2-a]pyrimidin-7-amine] | 34
31 | CNc1ccn2cc(-c3ccc(OC)c(OC)c3)nc2n1 [Example 142, 2-(3,4-Dimethoxyphenyl)-N-methylimidazo[1,2-a]pyrimidin-7-amine] | 21
32 | CNc1ccn2cc(-c3ccc(C)c(OC)c3)nc2n1 [Example 143, 2-(3-Methoxy-4-methylphenyl)-N-methylimidazo[1,2-a]pyrimidin-7-amine] | 21
33 | CNc1ccn2cc(-c3cc(OC)cc(OC)c3)nc2n1 [Example 144, 2-(3,5-Dimethoxyphenyl)-N-methylimidazo[1,2-a]pyrimidin-7-amine] | 14

From patent publication US9801961B2, “2-phenylimidazo[1,2-a]pyrimidines as imaging agents” (Hoffmann-La Roche Inc., priority 2013, dated 2017)
